Experiments:
pectate lyase = assay: Compatibility of pectate lyase with dyes, vibration viscometry assay on polygalacturonic acid; assay type: biochemical; conditions: 0.5 ml of 10 g/l dye solution added; pH 8.5, 40° C., 20 minutes; relative to none-dye control
Protocol: An analytical assay is used in compatibility tests. Prior to this assay, 5 mM phosphate buffer pH 8.5 is made up using KH2PO4 and NaOH (both from Fisher). The other solutions are constituted as follows:
i) The substrate is polygalacturonic acid in sodium salt form (from SIGMA). The substrate solution is made up to 11.436 g/l by dissolving polygalacturonic acid sodium salt in the phosphate buffer.
ii) Dye solutions are made up to 10 g/l by dissolving a commercial dye in the phosphate buffer.
iii) An internal standard pectate lyase (2600 APSU/g) is used. The enzyme solution is made up to 500 APSU/ml by dissolving the pectate lyase in the phosphate buffer.
During the assay, 3.5 ml substrate solution was pipetted into each tube. 0.5 ml of a dye solution or buffer was added and mixed well. The tube was then preheated in 40° C. water bath for 5 minutes. A total of 0.5 ml solution, including enzyme, and buffer was added using Hamilton Micro Lab 900. In dye compatibility, the 0.5 ml solution was made up with 40 μl enzyme solution and 460 μl buffer. For standard curve, 0-90 μl enzyme solution was used. Once enzyme was added, the solution was mixed immediately and the tube incubated at 40° C. for 20 minutes. The viscosity was then measured after putting the tube on a vibration viscometer (Sofraser Viscometer-mivi 3000, from France) for 10 seconds. At all conditions, experiments were performed in duplicate.
A standard linear curve was obtained within 0-5 APSU/ml pectate lyase concentration range (0-45 μl enzyme solution added). The correlation is given in the equation below: […]
Since the Y was obtained from experimental measurements, X was then calculated using the above equation. The enzyme activity with the addition of dye was compared to the activity of none-dye control. The relative activity is illustrated in Table 13. […] Since the chromophore structure of reactive dye shares similar chemical structure of direct dye and other dye classes, similar compatibility results may be expected for other dye classes. […] Since commercial dyes are not pure and often contains salt, the positive impact may be due to the salt in dye formula.

[1] = Wetting test, water drop test, AATCC Test Method 79-1992; conditions: Example 10; added to pectinase biopreparation and dyeing solution
Protocol: The wetting test was performed using water according to AATCC Test Method 79-1992. Five measurements were taken from each of three areas along the fabric in this water drop test. Color measurements were made using reflectance Macbeth Color Eye System with Optiview 1.7 software, using 10° standard observer and illuminant D65, which represents average daylight over range of 380-830 nm. Ten measurements at different positions of fabric tube were carried out.

[2] = tested on: pectate lyase activity on woven cotton fabric; conditions: Example 5; 2000 APSU/kg pectate lyase, pH 9.2, 60° C., 30 minutes, woven fabric 480U
Protocol: A buffer containing 2 mM borate at pH 9.2 and 1 g/l nonionic surfactant Tergitol 15-S-12 was prepared. The solution was transferred to Labomat beakers (Werner-Mathis USA, Inc., NC). […] Swatches of a woven fabric (type 480U from Testfabrics, Inc., PA) were then added to the beakers so that the liquor-to-fabric ratio was 10 ml/g. After the temperature was raised to 60° C., 2000 APSU/kg fiber of pectate lyase were added and the fabric was incubated at 60° C. for 30 minutes. The swatches were then removed and rinsed twice in hot and cold water.
The amount of residual pectic substances remaining on the fabric was determined by measuring the color strength of the fabric dyed with Ruthenium red, a dye with an affinity for pectic substances. For the Ruthenium red assay, a fresh solution was prepared containing 0.2 g/l Ruthenium red, 1.0 g/l ammonium chloride, 2.5 ml/l 28% ammonium hydroxide solution, 1.0 g/l Silwet L-77 (Wetter, Polyalkyleneoxide modified heptamethyltrisiloxane), and 1.1 g/l Tergitol 15-S-12. The solution was used at a ratio of 100 ml solution/gram of fabric. Fabric swatches were dyed at room temperature in Labomat beakers for 15 minutes and then rinsed with cold water. After drying, the color of swatches was assessed by measuring the reflectance of the Ruthenium red-dyed fabric on Macbeth color eye at 540 nm, and the dye on the fabric was calculated as K/S value.

Molecule | % Activity (relative pectate lyase activity) (pectate lyase) [%] | other results
CC(=O)Nc1ccc2cc(S(=O)(=O)O)c(N=Nc3ccc(S(=O)(=O)CCOS(=O)(=O)O)cc3)c(O)c2c1.[Na] [Remazol Br. Orange 3R] | 110.1 | 
cellulase |  | wettability (wetting time in the drop test, FIG. 2) [1]: better wettability
O=P(O)(O)OP(=O)(O)OP(=O)(O)O [sodium tripoly phosphate (STPP), sodium tripoly phosphate] |  | wettability (wetting time in the drop test, FIG. 2) [1]: better wettability
Nc1c(N=Nc2ccc(S(=O)(=O)CCOS(=O)(=O)[O-])cc2)c(S(=O)(=O)[O-])cc2cc(S(=O)(=O)[O-])c(N=Nc3ccc(S(=O)(=O)CCOS(=O)(=O)[O-])cc3)c(O)c12.[Na+].[Na+].[Na+].[Na+] [Remazol Black B] | 114.8 | 
Nc1c(S(=O)(=O)[O-])cc(Nc2cccc(S(=O)(=O)CCOS(=O)(=O)[O-])c2)c2c1C(=O)c1ccccc1C2=O.[Na+].[Na+] [Remazol Br. Blue R Spec.] | 200.9 | 
O=S(=O)([O-])[O-].[Na+].[Na+] [sodium sulfate] |  | sodium sulfate concentration at which a minimum amount of pectic residue was left on the fabric [2]: about 20 g/l
C=C(Br)C(=O)Nc1ccc(N=Nc2c(NC)ccc3cc(S(=O)(=O)[O-])cc(O)c23)c(S(=O)(=O)[O-])c1.[Na+].[Na+] [Lanasol Red 5B] | 117.6 | 

From patent US20030196279A1, “Single-bath biopreparation and dyeing of textiles” (Novozymes North America, Inc., priority 1999, published 2003)
